# Measured values published in patent publication US20240124389A1, “COMPOUND OR SALT THEREOF, LIPID PARTICLES, AND PHARMACEUTICAL COMPOSITION” (FUJIFILM Corporation, priority 2021, published 2024).
# What was measured:
# [1] = Particle size of EPO mRNA-encapsulating lipid particles; type: physicochemical
# Protocol: (§1) The compounds described in Table 1, the neutral lipid, cholesterol (product name: Cholesterol HP; NIPPON FINE CHEMICAL CO., LTD.), and 1,2-dimyristoyl-rac-glycero-3-(methylpolyoxyethylene 2000) (hereinafter, called DMG-PEG2000) (product name: SUNBRIGHT® GM-020; NOF corporation) were dissolved in ethanol at a molar ratio in Table 1 such that the total lipid concentration became 20 mmol/L, thereby obtaining an oil phase.
# (§2) As the neutral lipid, 1,2-distearoyl-sn-glycero-3-phosphocholine (product name: COATSOME® MC-8080; NOF corporation) (hereinafter, DSPC), or L-α-dioleoyl phosphatidylethanolamine (Hereinafter, DOPE) (product name: COATSOME® ME-8181; NOF corporation), or 1,2-dioleoyl-sn-glycero-3-phosphocholine (hereinafter, DOPC) (product name: COATSOME® MC-8181; NOF corporation) was used.
# (§3) EPO mRNA (product name: CleanCap EPO mRNA (5moU); TriLink) was diluted with 50 mmol/L citrate buffer having a pH 4 such that the weight ratio of total lipid concentration to mRNA concentration is about 16:1 to 64:1, thereby obtaining a water phase. Then, the water phase and the oil phase were mixed together using NanoAssemblr (Precision NanoSystems) such that the volume ratio of water phase:oil phase was 3:1, and the mixed solution was 1.5-fold diluted with phosphate buffered saline (PBS), thereby obtaining a dispersion liquid of mRNA lipid particles. The dispersion liquid was dialyzed with a 10% aqueous sucrose solution using a dialysis cassette (Slide-A-Lyzer G2, MWCO: 10 kD, Thermo Fisher Scientific) to remove ethanol, thereby obtaining EPO mRNA-encapsulating lipid particles.
# The particle size of the mRNA-encapsulating lipid particles was measured by 10-fold diluting the dispersion liquid of lipid particle with phosphate buffered saline (PBS) using Zeta-potential & Particle size Analyzer ELS-Z2 (Otsuka Electronics Co., Ltd.).
# human EPO = test: Measurement of EPO enzyme activity (EPO protein in blood plasma of mice after intravenous administration of EPO mRNA lipid particles); type: in vivo; settings: C57BL/6J mice, tail-vein i.v., mRNA 0.1 mg/kg, plasma 20 to 24 hours
# Protocol: as §1, §2, §3
# The dispersion liquid of mRNA lipid particles prepared in above-described <Preparation of EPO mRNA-encapsulating lipid particles> was tail-vein intravenously administered to C57BL/6J mice at a mRNA dosage of 0.1 mg/kg. 20 to 24 hours after the administration, blood was collected from the caudal vena cava, thereby obtaining blood plasma. The human EPO enzyme activity was quantified by using the obtained blood plasma and ab119522 Erythropoietin (EPO) Human Elisa Kit (Abcam.plc). The quantitative value is described as a relative amount of EPO protein in a case where Comparative Example 1 is 1.
# EPO mRNA = test: mRNA encapsulation rate of EPO mRNA-encapsulating lipid particles; type: physicochemical
# Protocol: as §1, §2, §3
# 15 to 30 μL of a 3 mol/L aqueous sodium acetate solution and 4.5 to 9 μL of glycogen were added to 30 to 60 μL of the lipid particles retaining mRNA, and 0.75 to 1.5 mL of ethanol was added thereto, so that only the nucleic acids were precipitated while the lipid was dissolved. Then, the supernatant was removed by centrifugation. The precipitates were air-dried for 15 minutes or longer, then water was added thereto to redissolve the precipitates, and the concentration thereof was measured using Nanodrop NF1000 (Thermo Fisher Scientific), thereby quantifying the total mRNA concentration.
# The mRNA concentration was quantified using a Quant-iT RiboGreen RNA Assay Kit (Thermo Fisher Scientific) according to the protocol. First, a 20×TE buffer included in the above-described kit was diluted with water, thereby obtaining a 1×TE buffer. TE represents Tris/EDTA (ethylenediaminetetraacetic acid). In order to quantify only mRNA in the outer water phase, the dispersion liquid of lipid particles retaining mRNA was 10,000-fold diluted with the 1×TE buffer. 100 μL of the 10,000-fold diluted dispersion liquid of lipid particles was put into a 96-well plate, then 100 μL of a RiboGreen reagent (reagent included in the Quanti-iT Ribogreen RNA Assay Kit described above) 2,000-fold diluted with the 1×TE buffer was added to a sample, and fluorescence (excitation wavelength: 485 nm, fluorescence wavelength: 535 nm) was measured using a plate reader Infinite F200 (TECAN), thereby quantifying the mRNA concentration in the outer water phase.
# By using the quantification results of the total mRNA concentration and the mRNA concentration in the outer water phase that were obtained through the above steps, the mRNA encapsulation rate of the mRNA lipid particles was calculated according to the following Equation.
# mRNA encapsulation rate (%)=(total mRNA concentration-mRNA concentration in outer water phase)/total mRNA concentration×100
# [2] = aminolipid 50 / DOPE 10 / cholesterol 38.5 / DMG-PEG2000 1.5 mol %, lipid/nucleic acid 64 wt/wt
# [3] = aminolipid 45 / DOPE 10 / cholesterol 43.5 / DMG-PEG2000 1.5 mol %, lipid/nucleic acid 64 wt/wt
# [4] = aminolipid 50 / DSPC 10 / cholesterol 38.5 / DMG-PEG2000 1.5 mol %, lipid/nucleic acid 20 wt/wt
SMILES,"Particle size [1, 2] [nm]",Relative amount of EPO protein (with respect to Comparative Example 1) (human EPO; [2]),Nucleic acid encapsulation rate (EPO mRNA; [2]) [%],also measured
"CCCCCC(CCCCC)COC(=O)CCCC(C)OC(=O)OCCN(CCOC(=O)OC(C)CCCC(=O)OCC(CCCCC)CCCCC)CCN(CC)CC (stereo not drawn) [Example 19, Bis(2-pentylheptyl) 11-(2-(diethylamino)ethyl)-5,17-dimethyl-7,15-dioxo-6,8,14,16-tetraoxa-11-azahenicosanedio ate]",147.0,1.26,100.0,
"CCCCCCCCOC(=O)CCCC(CCCC(=O)OCCCCCCCC)OC(=O)OCCN(CCOC(=O)OC(CCCC(=O)OCCCCCCCC)CCCC(=O)OCCCCCCCC)CCN(CC)CC [Example 33, Dioctyl 11-(2-(diethylamino)ethyl)-5,17-bis(4-(octyloxy)-4-oxobutyl)-7,15-dioxo-6,8,14,16-tetraoxa-1 1-azahenicosanedioate]",132.8,2.70,88.8,
"CCCCCC(CCCCC)COC(=O)CCCC(CCCCC)OC(=O)OCCN(CCOC(=O)OC(CCCCC)CCCC(=O)OCC(CCCCC)CCCCC)CCN(CC)CC (stereo not drawn) [Example 23, Bis(2-pentylheptyl) 11-(2-(diethylamino)ethyl)-7,15-dioxo-5,17-dipentyl-6,8,14,16-tetraoxa-11-azahenicosanedioate]",76.8,3.60,97.5,
"CCCCCCC(CCCC)COC(=O)CCCCCCCCC(CCCCCC)OC(=O)OCCN(CCCN(CC)CC)CCOC(=O)OC(CCCCCC)CCCCCCCCC(=O)OCC(CCCC)CCCCCC (stereo not drawn) [Example 3, Bis(2-butyloctyl) 16-(3-(diethylamino)propyl)-10,22-dihexyl-12,20-dioxo-11,13,19,21-tetraoxa-16-azahentriaco ntanedioate]",81.2,1.92,97.8,
"CCCCCCC(CCCC(=O)OCC(CCCCC)CCCCC)OC(=O)OCCN(CCCCN(CC)CC)CCOC(=O)OC(CCCCCC)CCCC(=O)OCC(CCCCC)CCCCC (stereo not drawn) [Example 14, Bis(2-pentylheptyl) 11-(4-(diethylamino)butyl)-5,17-dihexyl-7,15-dioxo-6,8,14,16-tetraoxa-11-azahenicosanedioate]",75.9,3.85,98.8,
"CCCCCCC(CCCC(=O)OCC(CCCCC)CCCCC)OC(=O)OCCCCN(CCCCOC(=O)OC(CCCCCC)CCCC(=O)OCC(CCCCC)CCCCC)CCN(CC)CC (stereo not drawn) [Example 16, Bis(2-pentylheptyl) 13-(2-(diethylamino)ethyl)-5,21-dihexyl-7,19-dioxo-6,8,18,20-tetraoxa-13-azapentacosanedio ate]",69.4,2.53,97.3,
"CCCCCCC(CCCC(=O)OCCC12CC3CC(CC(C3)C1)C2)OC(=O)OCCN(CCOC(=O)OC(CCCCCC)CCCC(=O)OCCC12CC3CC(CC(C3)C1)C2)CCN(CC)CC (stereo not drawn) [Example 27, Bis (2-(((3r,5r,7r)-adamantan-1-yl)ethyl)11-(2-(diethylamino)ethyl)-5,17-dihexyl-7,15-dioxo-6,8,1 4,16-tetraoxa-11-azahenicosanedioate]",101.5,3.60,99.8,
"CCCCCCCC/C=C\CCCCCCCC(=O)OCCN(CCOC(=O)OC(CCCCCC)CCCCCCCCC(=O)OCC(CCCCCC)CCCCCCCC)CCN(CC)CC (stereo not drawn) [Comparative Example 2, reference compound]",88.8,0.74,100,
"CCCCCCC(CCCC(=O)OCC(CCCCC)CCCCC)OC(=O)OCCN(CCOC(=O)OC(CCCCCC)CCCC(=O)OCC(CCCCC)CCCCC)CCN(CC)CC (stereo not drawn) [Example 10, bis(2-pentylheptyl) 11-(2-(diethylamino)ethyl)-5,17-dihexyl-7,15-dioxo-6,8,14,16-tetraoxa-11-azahenicosanedioate]",88.0,2.39,100.0,
"CCCCCC(CCCCC)COC(=O)CCCC(CC)OC(=O)OCCN(CCOC(=O)OC(CC)CCCC(=O)OCC(CCCCC)CCCCC)CCN(CC)CC (stereo not drawn) [Example 20, Bis(2-pentylheptyl) 11-(2-(diethylamino)ethyl)-5,17-dietyl-7,15-dioxo-6,8,14,16-tetraoxa-11-azahenicosanedioate]",133.4,3.22,100.0,
"CCCCCCC(CCC(=O)OCC(CCCCC)CCCCC)OC(=O)OCCN(CCOC(=O)OC(CCCCCC)CCC(=O)OCC(CCCCC)CCCCC)CCN(CC)CC (stereo not drawn) [Example 17, Bis(2-pentylheptyl) 10-(2-(diethylamino)ethyl)-4,16-dihexyl-6,14-dioxo-5,7,13,15-tetraoxa-10-azanonadecanedioate]",81.7,2.93,96.9,
CCCCCCCCOC(=O)CCCC(CCCC(=O)OCCCCCCCC)OC(=O)OCCN(CCOC(=O)OC(CCCC(=O)OCCCCCC)CCCC(=O)OCCCCCC)CCN(CC)CC [Example 42],,,,"Particle size [1, 3]: 128.2 nm; Relative amount of EPO protein (with respect to Comparative Example 1) (human EPO; [3]): 4.28; Nucleic acid encapsulation rate (EPO mRNA; [3]): 98.9%"
"CCCCCCC(CCCC(=O)OCC(CCCCC)CCCCC)OC(=O)OCCCN(CCCOC(=O)OC(CCCCCC)CCCC(=O)OCC(CCCCC)CCCCC)CCN(CC)CC (stereo not drawn) [Example 15, Bis(2-pentylheptyl) 12-(2-(diethylamino)ethyl)-5,19-dihexyl-7,17-dioxo-6,8,16,18-tetraoxa-12-azatricosanedioate]",76.8,1.92,97.5,
"CCCCC/C=C\C/C=C\CCCCCCCCC(CCCCCCCC/C=C\C/C=C\CCCCC)OC(=O)CCCN(C)C [Comparative Example 1, reference compound]",,,,"Particle size [1, 4]: 89.0 nm; Relative amount of EPO protein (with respect to Comparative Example 1) (human EPO; [4]): 1; Nucleic acid encapsulation rate (EPO mRNA; [4]): 93.4%"
